Experimental data published in patent US5173297A, “Bacteriocin from Lactococcus lactis subspecies lactis” (Quest International Flavors & Food Ingredients Company …, priority 1991, dated 1992).

How the values were obtained:
Assay in all cases: Spectrum of antimicrobial activity
Design in all cases: key: + = inhibition; - = no inhibition
Details in all cases: pure, titer 3200 AU/ml
L. fermentum 342 = type: cell-based, Lactobacillus fermentum
L. monocytogenes 59 = type: cell-based, Listeria monocytogenes
L. monocytogenes 69 = type: cell-based, Listeria monocytogenes
L. monocytogenes 36 = type: cell-based, Listeria monocytogenes
L. monocytogenes 04 = type: cell-based, Listeria monocytogenes
L. casei 326 = type: cell-based, Lactobacillus casei
S. mutans GS5 = type: cell-based, Streptococcus mutans
L. brevis 888 = type: cell-based, Lactobacillus brevis
P. pentosaceus FBB63C = type: cell-based, Pediococcus pentosaceus
Experimental: Colonies appearing on the agar plates were screened for antibacterial activity against a selected indicator, which usually predicted a wide antibacterial spectrum. The indicator chosen was Pediococcus pentosaceus FBB63C (Gonzalez, C. F., and B. S. Kunka, Appl. Environ. Microbiol. 53:2534-2538 (1987) and U.S. Pat. No. 4,883,673 to Gonzalez. Antibacterial activity was determined by picking colonies to replicate agar plates containing 1.9% sodium beta-glycerophosphate as buffer and after appearance of colonies overlaying with indicator.
To ascertain if the antibacterial substance is secreted into liquid medium, the cultures were grown in MRS broth and cell free filtrates of turbid cultures were made and the filtrate posted on a seeded semisolid agar overlay of the indicator. Antibacterial activity was quantitated by assigning arbitrary units. One arbitrary unit (AU) was defined as 5 μl of the culture supernatant yielding a definite, clear zone of inhibition on the indicator lawn. The titer was expressed as the reciprocal of the highest dilution of supernatant showing inhibition.

L. lactis LLA 2.0 = type: cell-based, Lactococcus lactis
L. monocytogenes 38 = type: cell-based, Listeria monocytogenes
P. acidilactici C = type: cell-based, Pediococcus acidilactici
P. acidilactici D = type: cell-based, Pediococcus acidilactici
P. acidilactici PAC 1.0 = type: cell-based, Pediococcus acidilactici
B. subtilis RM125 = type: cell-based, Bacillus subtilis
L. casei 842 = type: cell-based, Lactobacillus casei
P. acidilactici B = type: cell-based, Pediococcus acidilactici
L. monocytogenes 08 = type: cell-based, Listeria monocytogenes
L. lactis LLA 1.0 = type: cell-based, Lactococcus lactis
S. mutans V262 = type: cell-based, Streptococcus mutans
L. plantarum 355 = type: cell-based, Lactobacillus plantarum
L. brevis 329 = type: cell-based, Lactobacillus brevis
B. subtilis amylase^+ = type: cell-based, Bacillus subtilis
L. fermentum 701 = type: cell-based, Lactobacillus fermentum
P. acidilactici A = type: cell-based, Pediococcus acidilactici
L. plantarum 346 = type: cell-based, Lactobacillus plantarum
L. monocytogenes 62 = type: cell-based, Listeria monocytogenes

nisin [Nisin Pure]
inhibition of indicator strain L. fermentum 342 (L. fermentum 342): + | inhibition of indicator strain L. monocytogenes 59 (L. monocytogenes 59): + | inhibition of indicator strain L. monocytogenes 69 (L. monocytogenes 69): + | inhibition of indicator strain L. monocytogenes 36 (L. monocytogenes 36): + | inhibition of indicator strain L. monocytogenes 04 (L. monocytogenes 04): + | inhibition of indicator strain L. casei 326 (L. casei 326): + | inhibition of indicator strain S. mutans GS5 (S. mutans GS5): + | inhibition of indicator strain L. brevis 888 (L. brevis 888): + | inhibition of indicator strain P. pentosaceus FBB63C (P. pentosaceus FBB63C): + | inhibition of indicator strain L. lactis LLA 2.0 (L. lactis LLA 2.0): + | inhibition of indicator strain L. monocytogenes 38 (L. monocytogenes 38): + | inhibition of indicator strain P. acidilactici C (P. acidilactici C): + | inhibition of indicator strain P. acidilactici D (P. acidilactici D): + | inhibition of indicator strain P. acidilactici PAC 1.0 (P. acidilactici PAC 1.0): + | inhibition of indicator strain B. subtilis RM125 (B. subtilis RM125): + | inhibition of indicator strain L. casei 842 (L. casei 842): + | inhibition of indicator strain P. acidilactici B (P. acidilactici B): + | inhibition of indicator strain L. monocytogenes 08 (L. monocytogenes 08): + | inhibition of indicator strain L. lactis LLA 1.0 (L. lactis LLA 1.0): + | inhibition of indicator strain S. mutans V262 (S. mutans V262): - | inhibition of indicator strain L. plantarum 355 (L. plantarum 355): + | inhibition of indicator strain L. brevis 329 (L. brevis 329): + | inhibition of indicator strain B. subtilis amylase^+ (B. subtilis amylase^+): + | inhibition of indicator strain L. fermentum 701 (L. fermentum 701): + | inhibition of indicator strain P. acidilactici A (P. acidilactici A): + | inhibition of indicator strain L. plantarum 346 (L. plantarum 346): + | inhibition of indicator strain L. monocytogenes 62 (L. monocytogenes 62): +
